24 compounds from US7393824B1, “Methods of peptide preparation” (Lytix Biopharma, priority 2000, dated 2008) can be followed below.

What is called IC50 is the midpoint of a concentration-inhibition curve. The EC50 is the midpoint of the concentration-response curve.

Read-outs that look alike come from different tables or passages of the source. Residues, ends and D or L forms follow the SMILES beside them.

Holding throughout (format): cell-based
Data set [1] relates to Meth A murine sarcoma cell line.
Description: Peptide solutions (0.1 ml) were added and the plates incubated at 37° C. for 30 minutes, 4 hours or 24 hours. The cytotoxicity was measured using the MTT method (Mosmann et al., J. Immunol. (1986) 136, 2348-2357).
Data set [2] relates to MRC-5 cells (normal fibroblasts). Put plainly: Fibroblast assay (MTT). As to the method: The cells were washed with PBS and then trypsinated using 2 ml trypsin (for a 80 cm culture flask). After the cells had detached from the wall, usually after ca 3 min. of incubation, 5 ml medium with FBS were added. The cells were resuspended and counted. The cells were then transferred to a centrifugation tube and spinned at 1500 rpm for 10 min. The supernatant was removed and the cells resuspended to a concentration of 1×10^5 cells/ml. 100 ul cells suspension was transferred to each well in a 96-well microtiter plate and incubated for 25 hours to allow the cells to attach. Following the incubation, the medium containing serum was removed by turning the plate upside down against a piece of tissue. 100 ul medium without serum and L-glutamine (assay medium) was added to each well, and then removed as before. This was done to remove any trace of serum. […] The rest of the assay was done as previously described for methA, except that after the 2 hour incubation following MTT addition, 80 ul medium instead of 130 ul were removed.

The next data set concerns human red blood cells. Nature of the data set: Hemolytic assay. The procedure:
The hemolytic activities of the peptides were determined using fresh human red blood cells. 8 ml blood was taken from a healthy person. 4 ml blood was transferred to a polycarbonate tube containing heparin to a final concentration of 10 U/ml, and the remaining 4 ml blood was transferred to a glass tube containing EDTA with final concentration of 15% EDTA. The erythrocytes were isolated from heparin-treated blood by centrifugation in 1500 rpm for 10 min and washed three times with phosphate-buffered saline (PBS) to remove plasma and buffy coat. The cell pellet was resuspended in PBS to make the final volume of 4 ml. The peptide was diluted to a concentration of 2 mg/ml and 0.1 mg/ml. The peptide was further diluted to the concentrations as stated in Table 1. For each tube PBS was added first, then RBCs and peptide solutions. The hematocrit in the blood treated with EDTA was determined after 30 min with Sysmex K-1000, and the resuspended RBCs were diluted into 10% hematocrit. RBCs in PBS (1%) with and without peptides (Table 18) were incubated in a shaker at […] for 1 hour and then centrifuged at 4000 rpm for 5 min. The supernatant were carefully transferred to new polycarbonate tubes and the absorbance of the supernatant was measured at 540 nm. Baseline hemolysis was hemoglobin released in the presence of PBS, and 100% hemolysis was hemoglobin released in the presence of 0.1% Triton X-100.

[3] abbreviates: Table 3, unit inferred, read-out: Meth A IC50.
[4] abbreviates: Table 3, unit inferred, read-out: Fib IC50.
Where [5] appears, read: Table 3, unit inferred, read-out: RBC EC50.

For (KAAKKAA)3 W7,16,17 [KA24], the IC50 in data set [1] (setting [3]) was 29 µM; in data set [2] (setting [4]) it was more than 422 µM. In addition, the EC50 in the data set on human red blood cells (setting [5]) was more than 422 µM.

Consider (KAAKKAA)3 Bip9,16 [KA27], for which the values for the IC50 in data set [1] (setting [3]) and in data set [2] (setting [4]) were 24 µM and more than 429 µM, respectively. For the same compound, in the data set with human red blood cells (setting [5]), the EC50 is more than 429 µM.

As to (KAAKKAA)3 W9,16 [KA 7], the IC50 in data set [1] (setting [3]) is more than 222 µM; in data set [2] (setting [4]), more than 444 µM. Also, the EC50 in the data set with human red blood cells (setting [5]) was more than 444 µM.

Turning to `C[C@H](NC(=O)[C@H](C)NC(=O)[C@H](CCCCN)NC(=O)[C@H](CCCCN)NC(=O)[C@H](Cc1c[nH]c2ccccc12)NC(=O)[C@H](C)NC(=O)[C@H](CCCCN)NC(=O)[C@H](C)NC(=O)[C@H](Cc1c[nH]c2ccccc12)NC(=O)[C@H](CCCCN)NC(=O)[C@H](CCCCN)NC(=O)[C@H](C)NC(=O)[C@H](C)NC(=O)[C@@H](N)CCCCN)C(=O)N[C@@H](CCCCN)C(=O)N[C@@H](C)C(=O)N[C@@H](Cc1c[nH]c2ccccc12)C(=O)N[C@@H](CCCCN)C(=O)O` [KA 18W6,10,17] (H-KAAKKWAKAWKKAAKAWK-OH; N-terminus and C-terminus assumed), the IC50 in data set [1] (Table 1, KA18 peptides, read-out: IC50 Meth A) was not below 211 µM; in data set [2], more than 211 µM. Further, the EC50 in the data set on human red blood cells (red cells of human) was more than 422 µM.

Consider `C[C@H](NC(=O)[C@H](C)NC(=O)[C@H](CCCCN)NC(=O)[C@H](C)NC(=O)[C@H](C)NC(=O)[C@H](CCCCN)NC(=O)[C@H](CCCCN)NC(=O)[C@H](Cc1c[nH]c2ccccc12)NC(=O)[C@H](C)NC(=O)[C@H](CCCCN)NC(=O)[C@H](C)NC(=O)[C@H](C)NC(=O)[C@H](CCCCN)NC(=O)[C@H](CCCCN)NC(=O)[C@H](C)NC(=O)[C@H](C)NC(=O)[C@@H](N)CCCCN)C(=O)N[C@@H](CCCCN)C(=O)O` [KA 18W10] (H-KAAKKAAKAWKKAAKAAK-OH; N-terminus and C-terminus assumed), for which the IC50 in data set [1] (4 h) and in data set [2] was more than 234 µM in each case. Moreover, in the data set on human red blood cells (red cells of human), the EC50 was more than 467 µM.

As for (KAAKKAA)3 W6,10,17 [KA 31], the IC50 was 147 µM in data set [1] (setting [3]) and more than 422 µM in data set [2] (setting [4]). Besides, in the data set on human red blood cells (setting [5]), the EC50 is more than 422 µM.

Consider `C[C@H](NC(=O)[C@H](C)NC(=O)[C@H](CCCCN)NC(=O)[C@H](CCCCN)NC(=O)[C@H](C)NC(=O)[C@H](C)NC(=O)[C@@H](N)CCCCN)C(=O)N[C@@H](CCCCN)C(=O)N[C@@H](C)C(=O)N[C@@H](C)C(=O)N[C@@H](CCCCN)C(=O)N[C@@H](CCCCN)C(=O)N[C@@H](C)C(=O)N[C@@H](C)C(=O)N[C@@H](CCCCN)C(=O)N[C@@H](Cc1c[nH]c2ccccc12)C(=O)N[C@@H](C)C(=O)N[C@@H](CCCCN)C(=O)O` [KA 18W16] (H-KAAKKAAKAAKKAAKWAK-OH; N-terminus and C-terminus assumed), for which the IC50 in data set [1] (4 h) and in data set [2] was more than 234 µM in each case. In the data set with human red blood cells (red cells of human), this compound displayed an EC50 of more than 467 µM.

As to (KAAKKAA)3 W2,3,20 [KA15], the values for the 50% inhibitory concentration (IC50) in data set [1] (setting [3]) and in data set [2] (setting [4]) were 16 µM and 246 µM, respectively. The EC50 with human red blood cells (setting [5]) is more than 422 µM.

Regarding (KAAKKAA)3 W2,9,16,20 [KA 8], the IC50 in data set [1] (setting [3]) was determined as 4 µM; in data set [2] (setting [4]) it was 23 µM. Further, the EC50 with human red blood cells (setting [5]) is more than 402 µM.

For `C[C@H](NC(=O)[C@H](C)NC(=O)[C@H](CCCCN)NC(=O)[C@H](Cc1c[nH]c2ccccc12)NC(=O)[C@H](C)NC(=O)[C@H](CCCCN)NC(=O)[C@H](CCCCN)NC(=O)[C@H](C)NC(=O)[C@H](C)NC(=O)[C@@H](N)CCCCN)C(=O)N[C@@H](CCCCN)C(=O)N[C@@H](CCCCN)C(=O)N[C@@H](C)C(=O)N[C@@H](C)C(=O)N[C@@H](CCCCN)C(=O)N[C@@H](Cc1c[nH]c2ccccc12)C(=O)N[C@@H](C)C(=O)N[C@@H](CCCCN)C(=O)O` [KA W7,16] (H-KAAKKAWKAAKKAAKWAK-OH; N-terminus and C-terminus assumed), the IC50 in data set [1] (4 h) and in data set [2] was more than 222 µM in each case. In addition, in the data set on human red blood cells (red cells of human), the EC50 is more than 444 µM.

With (KAAKKAA)3 W2,3,20,21 [KA19], the IC50 in data set [1] (setting [3]) was determined as 19 µM; in data set [2] (setting [4]), 374 µM. In addition, the EC50 in the data set with human red blood cells (setting [5]) was more than 402 µM.

Consider (KAAKKAA)3 W7,10,17 [KA23], for which the figures for the IC50 in data set [1] (setting [3]) and in data set [2] (setting [4]) were 110 µM and more than 422 µM, respectively. Besides, the EC50 in the data set with human red blood cells (setting [5]) is more than 422 µM.

With (KAAKKAA)3 W7,9,14,16 [KA 4], the IC50 in data set [1] (setting [3]) stood at 5 µM; in data set [2] (setting [4]) it was 30 µM. In addition, the EC50 with human red blood cells (setting [5]) is more than 402 µM.

As for (OAAOOAA)3 W7,9,14,16 [KA14], the IC50 in data set [1] (setting [3]) turned out to be 5 µM; in data set [2] (setting [4]), 60 µM. Moreover, the EC50 in the data set on human red blood cells (setting [5]) was more than 424 µM.

WKWAKKAWKWAKKAA [KA21, 15-mer]: the IC50 in data set [1] (setting [3]) was 32 µM; in data set [2] (setting [4]), more than 530 µM. Also, the EC50 in the data set with human red blood cells (setting [5]) is more than 530 µM.

On to KKWAKKAWKWAKKAW [KA22, 15-mer], for which the values for the IC50 in data set [1] (setting [3]) and in data set [2] (setting [4]) were 30 µM and more than 514 µM, respectively. The half-maximal effective concentration (EC50) in the data set with human red blood cells (setting [5]) is more than 514 µM.

On to WKWAKKAAKWAWKAA [KA20, 15-mer], for which the IC50 is 140 µM in data set [1] (setting [3]) and 307 µM in data set [2] (setting [4]). Besides, the EC50 with human red blood cells (setting [5]) was more than 546 µM.

For (KAAKKAA)3 W7,9,16 [KA 32], the IC50 is 28 µM in data set [1] (setting [3]) and more than 422 µM in data set [2] (setting [4]). For the same compound, the EC50 with human red blood cells (setting [5]) was more than 422 µM.

As to KKAWKWAKKAWKWAKKA [KA18], the results for the IC50 in data set [1] (setting [3]) and in data set [2] (setting [4]) were 8 µM and 115 µM, respectively. In addition, the EC50 in the data set with human red blood cells (setting [5]) was more than 451 µM.

`CC[C@H](C)[C@H](NC(=O)[C@H](CCCNC(=N)N)NC(=O)[C@H](Cc1ccccc1)NC(=O)[C@H](C)NC(=O)[C@H](CCCCN)NC(=O)[C@H](CCCNC(=N)N)NC(=O)[C@H](Cc1c[nH]c2ccccc12)NC(=O)[C@H](C)NC(=O)[C@@H]1CCCN1)C(=O)N[C@@H](C)C(=O)N[C@@H](Cc1c[nH]c2ccccc12)C(=O)N[C@@H](CCCNC(=N)N)C(=O)N[C@@H](CCSC)C(=O)N[C@@H](CC(C)C)C(=O)N[C@@H](CCCCN)C(=O)N[C@@H](CCCCN)C(=O)N[C@@H](C)C(=O)N[C@@H](C)C(=O)O` [W9→I9] (H-PAWRKAFRIAWRMLKKAA-OH; N-terminus and C-terminus assumed) had an EC50 in the data set with human red blood cells (red cells of human) of 155 µM.

On to `CSCC[C@H](NC(=O)[C@H](CCCNC(=N)N)NC(=O)[C@H](Cc1c[nH]c2ccccc12)NC(=O)[C@H](C)NC(=O)[C@H](Cc1c[nH]c2ccccc12)NC(=O)[C@H](CCCNC(=N)N)NC(=O)[C@H](Cc1ccccc1)NC(=O)[C@H](C)NC(=O)[C@H](CCCCN)NC(=O)[C@H](CCCNC(=N)N)NC(=O)[C@H](Cc1c[nH]c2ccccc12)NC(=O)[C@H](C)NC(=O)[C@@H]1CCCN1)C(=O)N[C@@H](CC(C)C)C(=O)N[C@@H](CCCCN)C(=O)N[C@@H](CCCCN)C(=O)N[C@@H](C)C(=O)N[C@@H](C)C(=O)O` [LFB (14-31)m, PAWRKAFRWAWRMLKKAA] (H-PAWRKAFRWAWRMLKKAA-OH), for which the “toxicity to fibroblasts” value in data set [2] was “highly toxic to fibroblasts”.

As to (KAAKKAA)3 F2,9,16,20 [KA17], the IC50 is 37 µM in data set [1] (setting [3]) and more than 429 µM in data set [2] (setting [4]). Moreover, the EC50 in the data set with human red blood cells (setting [5]) was more than 429 µM.

For the compound (KAAKKAA)3 W2,9,16 [KA 5], the IC50 in data set [1] (setting [3]) amounted to 15 µM; in data set [2] (setting [4]), 302 µM. Also, the EC50 in the data set with human red blood cells (setting [5]) was more than 422 µM.

Consider `C[C@H](NC(=O)[C@H](C)NC(=O)[C@H](CCCCN)NC(=O)[C@H](CCCCN)NC(=O)[C@H](C)NC(=O)[C@H](Cc1c[nH]c2ccccc12)NC(=O)[C@H](CCCCN)NC(=O)[C@H](Cc1c[nH]c2ccccc12)NC(=O)[C@H](C)NC(=O)[C@H](CCCCN)NC(=O)[C@H](CCCCN)NC(=O)[C@H](C)NC(=O)[C@H](C)NC(=O)[C@@H](N)CCCCN)C(=O)N[C@@H](CCCCN)C(=O)N[C@@H](Cc1c[nH]c2ccccc12)C(=O)N[C@@H](C)C(=O)N[C@@H](CCCCN)C(=O)O` [KA 18W7,9,16] (H-KAAKKAWKWAKKAAKWAK-OH; N-terminus and C-terminus assumed), for which the IC50 in data set [1] (4 h) was 32 µM; in data set [2], more than 211 µM. The EC50 with human red blood cells (red cells of human) was more than 422 µM.
